Measurements published in patent EP0062319A1, “3-Methyl-1-(2-(3-naphthyloxy)-ethyl)-2-pyrazolin-5-one for the treatment of the metastasis and growth of tumour cells” (BAYER AG, priority 1981, dated 1982).

Experiments:
[1] = test system: B-16a-amelanotischen Melanom-Zellen; assay: Metastasis of tail-vein injected B-16a melanoma cells (lung tumour colonies) in mice; assay type: in vivo, C57BL/6J Mäuse; conditions: 5 x 10^4 cells i.v., mean ± SEM, n = 6
Text: Wie bereits weiter oben festgestellt wurde, ist die Metastase […], die durch eine Reihe komplizierter Vorgänge dargestellt wird. Gegenwärtig finden zwei "Modell"-Systeme für die Untersuchung der in vivo-Metastase verbreitete Anwendung. Das erste Modellsystem umfaßt die subkutane Injektion der Tumorzellen in das Tier. Die subkutane Injektion der Tumorzellen und anschließende Entwicklung eines Primärtumors, gefolgt von spontaner Metastase, wird als "volle" Metastase betrachtet. Ein anderes Modellsystem umfaßt die Injektion der Tumorzellen durch die Schwanzvene. In Anbetracht der Komplexität der Metastase gilt die Schwanzvenen-Injektion als künstliches und nur partielles Modellsystem, da es nur die Vorgänge während des letzteren Teils der Metastase wiedergibt. Das Schwanzvenen-Modellsystem gilt jedoch auch als außerordentlich günstig im Hinblick auf eine Standardisierung der Versuchsbedingungen [vgl."Methods in Cancer Research", Kapitel VII, Academic Press, Inc., 1978].
Als Kontrolltiere wurden (unbehandelte) C57B1/6J-Mäuse nach folgender Arbeitsweise auf volle Metastase untersucht. Zellsuspensionen der B-16 - und 3LL-Karzinom-Zellen, die wie oben unter A und B beschrieben erhalten worden waren, wurden subkutan in die rechte Achselhöhlenregion der männlichen C57BL/6J-Mäuse injiziert (0,66 mm- = 26 gauge -Nadel; 0,2 ml). Injiziert wurden verschiedene Mengen der Zellsuspensionen im Bereich von 1 x 10^5 bis 1 x 10^6 Zellen. Versuche zur partiellen Metastase wurden in der Weise durchgeführt, daß Tumorzellen über die Schwanzvene in die (unbehandelten) Kontroll-Mäuse injiziert wurden. Die Tiere wurden unter identischen Bedingungen der Temperatur, Lichteinwirkungsdauer, Ernährung etc. gehalten. Nach einem Beobachtungszeitraum von 17 bis 30 Tagen wurden die für die volle Metastase und für die partielle Metastase verwendeten Tiere getötet, und die Lungen, Leber, Nieren, Milz und Gehirn-Gewebe wurde entnommen.
Das entnommene Gewebe wurde in Bouin-Lösung fixiert.
Die Zahl der metastatischen Knötchen in jedem Organ wurde mit Hilfe eines Bausch-und-Lomb Stereo-Zoom-Mikroskops bestimmt. Die Untersuchung der Kontroll- Mäuse auf metastatische Knötchen ergab bei 100 % der Tiere positive Befunde in bezug auf metastatische Lungentumoren; die Inkubationszeit für die Erzeugung solcher Metastasen betrug für die 3LL-Tumorzellen 17 bis 21 Tage und für die B-16 a -Tumorzellen 23 bis 30 Tage. In Leber, Nieren, Milz oder Gehirn-Gewebe wurden keine sichtbaren Knötchen beobachtet.
3 mg 3-Methyl-1-[2-(2-naphthyloxy)-ethyl]-2-pyrazolin-5-on wurden in 0,6 ml absolutem Ethylalkohol suspendiert. Das suspendierte Pyrazolon wurde durch Einstellen des pH auf 9,5 mit NaOH gelöst. […]

[2] = test system: B-16a-Zellen; assay: DNA synthesis by 3H-thymidine uptake in B-16a cells in vitro; assay type: cell-based, Mäuse; conditions: 0,1, 1,0, 10 and 25 µg/ml, 4 h and 18 h, Fig. 1, relative to control = 100 %
Text: Die antineoplastische Wirksamkeit wurde in vitro durch Messung der DNS-Synthese sowohl von B-16a- als auch von Lewis-Lungenkarzinom-Zellen durch eine Methode gemessen, der die Thymidin-Aufnahme zugrundeliegt. Zellen, die in Vorbereitung der Zellteilung DNS synthetisieren, sind durch ihre Fähigkeit gekennzeichnet, Thymidin aufzunehmen. Demnach ist die Zell-Proliferation mit der DNS-Synthese verbunden. Wenn die Menge der durch die Tumorzellen synthetisierten DNS vermindert wird, so ist das ein Anzeichen dafür, daß die Zellteilung und damit das Tumorwachstum gehemmt worden ist.
B-16a- und Lewis-Lungenkarzinom-Zellen wurden wie vor- stehend beschrieben erhalten. Die dispergierten Zellen wurden in sterilen 25 ml-Erlenmeyer-Kolben aus Kunststoff auf eine Konzentration von 1 x 10^5 Zellen/ml in MEM verdünnt. Tritium-markiertes Thymidin (^3H) mit einer spezifischen Aktivität von […] (50-80 Ci/mmol) wurde mit […] (2 µCi/ml) zu jedem ml der Zellsuspension hinzugefügt.
Zu einer Reihe von Kolben, die die B-16 - und Lewis-Lungenkarzinom-Zellen enthielten, wurde die Pyrazolon-Verbindung in Mengen von 0,1 , 1,0 , 10 und 25 µg/ml des Gesamtvolumens hinzugefügt. […]

In the case of `CC1=NN(CCOc2ccc3ccccc3c2)C(=O)C1` [3-Methyl-1-[2-(2-naphthyloxy)-ethyl]-2-pyrazolin-5-on], the Lungen-Tumor-Kolonien ([1]; 0.02 mg/mouse s.c. daily for 3 days before tumour cell injection, lungs 14 days later) is reported as 19.3 ± 7.5, the Lungen-Tumor-Kolonien ([1]; 0.08 mg, second line of the table (presumably injected 1 h before the tumour cells)) is reported as 65 ± 36 and the Lungen-Tumor-Kolonien ([1]; 0.08 mg/mouse s.c. daily for 3 days before tumour cell injection, lungs 14 days later) is reported as 2.7 ± 1.3. For the same compound, the “DNS-Synthese (3H-Thymidinaufnahme)” value [2] was “konzentrationsabhängige Abnahme der DNS-Synthese”.
